In US20060115816A1, “Splice variant cannabinoid receptor (cb1b)” (priority 2002, published 2006):
Where two headings read alike, the source gives them in different places.

Columns and labels:
hCB2 = molecular target: T1, hCB2 (Homo sapiens, UniProt P34972); test: GTPγ[35S] binding assay, agonist properties on hCB2; format: biochemical
T1 construct: expressed in transfected cells

hCB1 = molecular target: T2, hCB1 (Homo sapiens, UniProt P21554); test: biochemical; format: biochemical
T2 construct: expressed in transfected cells
T2 sequence (P21554 whole entry): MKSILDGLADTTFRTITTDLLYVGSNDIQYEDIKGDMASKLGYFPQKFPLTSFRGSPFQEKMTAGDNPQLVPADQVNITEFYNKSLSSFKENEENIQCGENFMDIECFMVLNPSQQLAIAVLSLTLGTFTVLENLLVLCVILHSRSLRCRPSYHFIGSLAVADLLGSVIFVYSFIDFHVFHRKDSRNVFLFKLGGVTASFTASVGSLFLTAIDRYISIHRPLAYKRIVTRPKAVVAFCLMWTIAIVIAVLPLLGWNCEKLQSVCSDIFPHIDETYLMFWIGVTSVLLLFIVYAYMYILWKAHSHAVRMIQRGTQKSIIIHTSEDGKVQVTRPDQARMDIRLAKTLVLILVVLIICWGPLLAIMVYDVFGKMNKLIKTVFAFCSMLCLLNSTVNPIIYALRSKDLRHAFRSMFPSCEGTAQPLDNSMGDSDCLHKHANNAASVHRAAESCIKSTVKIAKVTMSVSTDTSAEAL

[1] = molecular target: T3, un-spliced human CB 1 receptor (Homo sapiens, UniProt P21554); test: FLIPR intracellular calcium mobilization assay (Fluo-3), HEK-293S cells expressing un-spliced hCB1 receptor and Gα16; format: cell-based
T3 construct: expressed in transfected cells
T3 sequence (P21554 whole entry, canonical isoform): as the sequence (P21554 whole entry) above

hCB1b [2] = molecular target: T4, hCB1b (Homo sapiens, UniProt P21554); test: biochemical; format: biochemical
T4 construct: expressed in transfected cells
T4 sequence (P21554 1-439 isoform P21554-3): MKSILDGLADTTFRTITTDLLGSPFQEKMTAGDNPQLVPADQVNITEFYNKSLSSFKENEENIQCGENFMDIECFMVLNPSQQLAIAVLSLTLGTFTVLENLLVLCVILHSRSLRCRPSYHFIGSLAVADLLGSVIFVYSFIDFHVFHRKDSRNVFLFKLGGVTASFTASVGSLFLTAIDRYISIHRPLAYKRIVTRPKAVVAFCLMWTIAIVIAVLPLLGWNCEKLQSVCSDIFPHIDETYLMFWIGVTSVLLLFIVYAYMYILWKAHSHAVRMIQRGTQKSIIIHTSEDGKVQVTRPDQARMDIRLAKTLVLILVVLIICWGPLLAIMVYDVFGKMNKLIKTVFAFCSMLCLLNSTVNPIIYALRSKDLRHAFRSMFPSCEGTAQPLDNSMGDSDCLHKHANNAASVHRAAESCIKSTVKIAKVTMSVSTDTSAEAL

hCB1a = molecular target: T5, hCB1a (Homo sapiens, UniProt P21554); test: biochemical; format: biochemical
T5 construct: expressed in transfected cells
T5 sequence (P21554 1-411 isoform P21554-2): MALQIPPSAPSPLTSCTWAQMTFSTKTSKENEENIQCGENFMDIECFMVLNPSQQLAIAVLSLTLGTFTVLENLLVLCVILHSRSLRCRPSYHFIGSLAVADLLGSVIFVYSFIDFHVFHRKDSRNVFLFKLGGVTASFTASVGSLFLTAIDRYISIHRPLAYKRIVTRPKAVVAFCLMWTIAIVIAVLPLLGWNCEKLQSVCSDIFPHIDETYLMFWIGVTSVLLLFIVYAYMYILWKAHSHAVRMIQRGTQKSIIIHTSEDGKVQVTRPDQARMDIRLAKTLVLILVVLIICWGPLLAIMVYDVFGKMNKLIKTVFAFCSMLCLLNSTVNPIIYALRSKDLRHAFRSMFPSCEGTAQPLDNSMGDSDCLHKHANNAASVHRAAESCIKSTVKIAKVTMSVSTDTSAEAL

hCB1b [3] = molecular target: T4, hCB1b; test: FLIPR intracellular calcium mobilization assay (Fluo-3), HEK-293S cells expressing human CB1b receptor and Gα16; format: cell-based
Method: In order to assess the functionality of the human CB1b receptor variant, a functional assay was performed with FLIPR (Fluorescent Imaging Plate Reader, Molecular Devices) using the fluorescent calcium indicator Fluo-3 (Molecular Probes) on a 96 well platform. […] On the day of the experiment, the cells were initially washed once with Hank's buffer (pH7.4) containing 20 mM Hepes and 0.1% BSA (HBSS buffer) and subsequently loaded with fluorescent solution (HBSS buffer, 4 μM Fluor-3 and 0.04% pluronic acid). The cells were incubated at 37° C. for 1 hour in a humidified chamber. Following the incubation step, cells were washed five times with HBSS buffer. […] A range of other natural and synthetic cannabinoid ligands were also tested.

[4] = agonist, GTPγ[35S] binding assay, read-out: EC50 hCB1
[5] = agonist, GTPγ[35S] binding assay, read-out: EC50 hCB1b
[6] = agonist, GTPγ[35S] binding assay, read-out: EC50 hCB1a

T1 sequence (P34972 whole entry): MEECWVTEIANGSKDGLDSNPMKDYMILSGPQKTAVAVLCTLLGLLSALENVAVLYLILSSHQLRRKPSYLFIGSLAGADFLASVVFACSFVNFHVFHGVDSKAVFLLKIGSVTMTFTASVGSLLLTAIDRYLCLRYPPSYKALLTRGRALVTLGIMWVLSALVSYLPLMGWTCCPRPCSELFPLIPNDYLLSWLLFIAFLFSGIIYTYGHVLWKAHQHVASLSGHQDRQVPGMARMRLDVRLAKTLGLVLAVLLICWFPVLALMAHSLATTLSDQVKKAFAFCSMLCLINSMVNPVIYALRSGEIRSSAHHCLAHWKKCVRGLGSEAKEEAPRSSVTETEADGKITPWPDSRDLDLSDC

Row | SMILES | EC50 (hCB2) [nM] | EC50 (hCB1; [4]) [nM] | EC50 (hCB1b [2]; [5]) [nM] | EC50 (hCB1a; [6]) [nM] | further results
1 | CCCCC/C=C\C/C=C\C/C=C\C/C=C\CCCC(=O)OC(CO)CO [2-arachodonylglycerol] | 1690 |  |  |  | 
2 | CCCCCCC(C)(C)c1cc(O)c2c(c1)OC(C)(C)[C@@H]1CC=C(CO)C[C@@H]21 [Hu210] |  |  |  |  | EC50 (hCB1): 0.06 nM; EC50 [1]: 0.06 nM; EC50 (hCB1b [2]): 0.15 nM; EC50 (hCB1a): 0.2 nM; EC50 (hCB1b [3]): 0.15 nM
3 | CCCC(C)(C)c1ccc2c(c1)OC(C)(C)[C@@H]1CC=C(C)C[C@@H]21 [JWH133] | 1.8 | > 1000 | > 1000 | > 1000 | 
4 | CCCCC/C=C\C/C=C\C/C=C\C/C=C\CCCCOC(CO)CO [Noladin Ether] | > 1000 |  |  |  | EC50 (hCB1; read-out: EC50 hCB1): 5.1 nM; EC50 (hCB1b [2]; read-out: EC50 hCB1b): > 1000 nM; EC50 (hCB1a; read-out: EC50 hCB1a): > 1000 nM
5 | CCCCCCCCCCCCCCCC(=O)NCCO [Palmitoylethanolamine] | 349 | > 1000 | > 1000 | > 1000 | 
6 | CCCCC/C=C\C/C=C\C/C=C\C/C=C\CCCC(=O)OCCN [Virodhamine] | 1310 | 934 | > 1000 | > 1000 | 
